From patent US20110104057A1, “Novel [F-18]-labelled L-glutamic acid and L-glutamine derivatives (II), their use and processes for their preparation” (BAYER SCHERING PHARMA AKTIENGESELLSCHAFT, priority 2008, published 2011)

How the values were obtained:
A549 cells = assay: competition cell experiment: inhibition of the uptake of 4R/S-[F-18]F-L-glutamic acid (tracer); assay type: cell-based, human; details: for % Tracer uptake: A549 cells, 10 min of incubation with 0.250 MBq of 4R/S-[F-18]F-L-Glu in PBS buffer, competitor concentration 1 mM, control = 100.0; for inhibition of tracer uptake: competitor 1 mM, tracer 4R/S-[F-18]F-L-glutamic acid
Experimental: The uptake of the glutamic acid derivatives according to the invention into tumour cells was investigated in cell experiments. Here, the uptake of a radiolabelled glutamic acid derivative (4R/S—[F-18]F-L-glutamic acid) was examined in the presence of the compounds according to the invention (competition experiments). The compounds according to the invention were employed in excess (1 mM) over 4R/S—[F-18]F-L-glutamic acid (tracer).
FIG. 1: graphic representation of the inhibition of the cellular uptake of 4R/S—[F-18]F-L-Glu by compounds according to the invention branched in the 4-position in A549 cells (human non-small-cell bronchial carcinoma) after 10 min of incubation.

[1] = system: rats bearing H460 tumours; assay: PET imaging in rats bearing H460 tumours; assay type: in vivo
Experimental: (§1) (2S,4S)-2-Amino-4-(6-[F-18]fluorohexyl)pentanedioic acid was studied in rats bearing H460 tumours using PET imaging and subsequent organ distribution.
(§2) The highest enrichment at 0.52% of the injected dose per g in the tumour was measured at a time of 100 min after injection. […] Thus, in these organs, an uptake of 0.36% ID/g and 0.20% ID/g, respectively, was observed after 100 min. Uptake into the bones was 0.43% ID/g.
60 min after i.v. administration of 15 MBq of (2S,4S)-2-amino-4-(6-[F-18]fluorohexyl)pentanedioic acid to rats bearing H460 tumours, data acquisition with a PET scanner (Inveon) was started for 30 minutes.
FIG. 3. PET study of 60 to 90 min after injection of (2S,4S)-2-amino-4-(6-[F-18]fluorohexyl)pentanedioic acid into mice bearing H460 tumours (analysis of sections)
FIG. 4. PET study of 60 to 90 min after injection of (2S,4S)-2-amino-4-(6-[F-18]fluorohexyl)pentanedioic acid into mice bearing H460 tumours (whole body imaging)

[2] = system: rats bearing H460 tumours; assay: organ distribution after i.v. administration to animals bearing H460 tumours; assay type: in vivo; details: 100 min after i.v. administration of 15 MBq
Experimental: as §1, §2

A460 tumour cells = assay: cellular uptake of the F-18-labelled compound in tumour cells; assay type: cell-based, human; details: for uptake, % of the dose per 100 000 cells: after 30 min of incubation
Text: Following labelling with F-18, (4S)-4-(6-[F-18]fluorohexyl)-L-Glu was examined in cell experiments with A460 tumour cells (human non-small-cell bronchial carcinoma).

[3] = PET 60-90 min after i.v. administration of 15 MBq

With NC(CC(F)C(=O)O)C(=O)O (racemic) [4-(R/S)-fluoro-D/L-Glu] the “% Tracer uptake” value (A549 cells) was 16.3%.

With N[C@@H](CCC(=O)O)C(=O)O [L-Glu, L-configured glutamic acid] the “% Tracer uptake” value (A549 cells) was 12.6% and the “inhibition of tracer uptake” value (A549 cells) was 87%.

With N[C@@H](C[C@H](CCCCCC[18F])C(=O)O)C(=O)O [(2S,4S)-2-Amino-4-(6-[F-18]fluorohexyl)pentanedioic acid] the “PET image analysis: enrichment in the remainder of the body” value [1, 3] was “low enrichment”, the “PET image analysis: uptake into the H460 tumour” value [1, 3] was “high uptake” and the “PET study: uptake or excretion in the kidneys or pancreas” value ([1]; PET study) was “transient uptake or excretion”. For the same compound, the “% ID/g Tumour” value ([2]; H460 tumour) was 0.52 % ID/g, the “% ID/g Blood” value ([2]; H460 tumour bearing animals) was 0.04 % ID/g and the “% ID/g Bones” value ([2]; H460 tumour bearing animals) was 0.43 % ID/g. The “% ID/g Kidney” value ([2]; H460 tumour bearing animals) was 0.36 % ID/g, the “% ID/g Liver” value ([2]; H460 tumour bearing animals) was 0.08 % ID/g and the “% ID/g Muscle” value ([2]; H460 tumour bearing animals) was 0.02 % ID/g. The “% ID/g Pancreas” value ([2]; H460 tumour bearing animals) was 0.20 % ID/g, the “uptake, % of the dose per 100 000 cells” value (A460 tumour cells; listed as 4-(6-[F-18]fluorohexyl)-L-Glu) was 11.2 % of the dose per 100 000 cells and the “uptake, % of the dose per 100 000 cells” value (A460 tumour cells; listed as (4S)-4-(6-[F-18]fluorohexyl)-L-Glu) was 11.2 % of the dose per 100 000 cell. For the same compound, the “time course of cellular uptake” value (A460 tumour cells; tumour cells, F-18-labelled compound) was “time-dependent cellular uptake”.

For NC(CC(OC1CC(F)C1)C(=O)O)C(=O)O [(4S)-4-(3-fluorocyclobutoxy)-Glu, 2-Amino-4-(3-fluorocyclobutoxy)pentanedioic acid], the “% Tracer uptake” value (A549 cells) was 5.7% and the “inhibition of tracer uptake” value (A549 cells) was > 90%.

In the case of N[C@@H](C[C@H](CCCF)C(=O)O)C(=O)O [(4S)-4-(3-fluoropropyl)-Glu], the “% Tracer uptake” value (A549 cells) is reported as 5.4%.

C[C@@H](C[C@H](N)C(=O)O)C(=O)O [(4S)-methyl-Glu] was tested, and the “% Tracer uptake” value (A549 cells) was 7.7%.

With N[C@@H](C[C@H](O)C(=O)O)C(=O)O [(4S)-hydroxy-Glu] the “% Tracer uptake” value (A549 cells) was 13.2%.

For N[C@@H](C[C@H](CCCCCCF)C(=O)O)C(=O)O [(4S)-4-(6-fluorohexyl)-Glu, (2S,4S)-2-Amino-4-(6-fluorohexyl)pentanedioic acid], the “% Tracer uptake” value (A549 cells) was 6.3% and the “inhibition of tracer uptake” value (A549 cells) was 94%.
